Assay results from patent publication US10471025B2, “Compositions for use in treating parkinson's disease and related disorders” (Technophage, Investigação E Desenvolvimento Em …, priority 2015, dated 2019).
Several values for one entry are separate records, joined by “and”; a condition that tells them apart may be missing. Equal entries are not always repeated. Entries after “also recorded” stand apart in the source; their conditions may differ. Where two headings read alike, the source gives them in different places.

Legend:
[1] = cited from earlier work
[2] = system: 6-OHDA treated zebrafish larvae; assay: Locomotor behavior rescue (total distance moved, number of jumps) in 6-OHDA zebrafish PD model; assay type: in vivo; conditions: for Optimal concentration: behavioral experiments and TH+ cell counts; for Number of jumps: concentration validated as recovering the 6-OHDA induced behavior / Total distance travelled, difference between treated larvae and disease control: zebrafish, in vivo
From the text: To model Parkinson ̆s disease (PD), a neurotoxin 6-OHDA (6-hyroxydopamine) based method was used in zebrafish and in mice. In this model, 6-OHDA-lesions induce motor manifestations in zebrafish and in mice, such as reduced locomotor ability, and the loss of dopaminergic neurons. Based on the 6-OHDA PD zebrafish model, compounds from a small molecules library were screened for rescue of the parkinsonian phenotype (Example 1, see below).
The screen was based on both the recovery of impaired locomotor behavior and dopaminergic neuronal loss.
Values were normalized for the mean of disease state in each experiment (disease=1). Each plot contains data from 3 independent experiments with a total of 24 larvae. As a control, zebrafish were treated with only the vehicle, ascorbic acid.
For these experiments, Tubingen (TU) wild-type zebrafish, a specific strain of wild-type zebrafish, were used.

[3] = system: 6-OHDA treated zebrafish larvae; assay: Co-administration with L-Dopa, total distance 6-OHDA larvae move; assay type: in vivo; conditions: total distance; L-Dopa 250 or 125 μM
[4] = system: 6-OHDA treated zebrafish larvae; assay: LD50 / lethality in the disease context of the zebrafish model
rat = conditions: rat, cited from earlier work
[5] = in DMSO; cited from earlier work
COX-2 = biological target: T1, COX-2 (Homo sapiens, UniProt P35354); conditions: cited from earlier work
T1 sequence (P35354 18-604): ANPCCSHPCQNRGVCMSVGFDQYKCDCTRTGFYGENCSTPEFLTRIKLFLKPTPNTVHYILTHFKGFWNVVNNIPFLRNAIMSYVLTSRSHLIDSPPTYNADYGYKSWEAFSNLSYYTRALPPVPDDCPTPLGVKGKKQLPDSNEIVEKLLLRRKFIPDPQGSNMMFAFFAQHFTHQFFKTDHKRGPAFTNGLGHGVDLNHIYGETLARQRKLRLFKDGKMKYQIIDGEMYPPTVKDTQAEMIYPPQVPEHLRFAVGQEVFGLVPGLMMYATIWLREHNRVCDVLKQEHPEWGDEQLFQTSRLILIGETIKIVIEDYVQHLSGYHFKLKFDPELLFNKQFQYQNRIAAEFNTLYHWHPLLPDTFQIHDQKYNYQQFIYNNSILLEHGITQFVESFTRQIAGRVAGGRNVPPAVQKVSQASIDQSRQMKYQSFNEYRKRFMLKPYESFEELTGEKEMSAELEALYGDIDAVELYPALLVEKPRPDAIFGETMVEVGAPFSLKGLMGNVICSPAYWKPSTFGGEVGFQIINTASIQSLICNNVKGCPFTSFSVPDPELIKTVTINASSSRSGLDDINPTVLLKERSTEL

mouse = conditions: mouse, cited from earlier work
[6] = system: 6-OHDA treated zebrafish larvae; assay: Rescue of Tyrosine hydroxylase (TH)-positive dopaminergic neurons in 6-OHDA zebrafish larvae; assay type: in vivo; conditions: for Neurorescue: TH+ neurons at optimal dose, p; for Neuroprotective effect / recovery of TH+ neurons: at the optimal concentration of each molecule
Experimental: The 7 candidates also were tested in terms of rescue of dopaminergic neurons positive for Tyrosine hydroxylase (Th) in the substancia nigra pars compacta of the test animals. […] Results were normalized for healthy control values (healthy control=100% of neurons). As a control, zebrafish were treated with only the vehicle, ascorbic acid. ‘6-OHDA_ represents results in zebrafish receiving no treatment.
FIGS. 6E-6G show representative Z-projections of confocal stacks of whole-mount anti-TH immunohistochemistry in 6 days post-fertilization (dpf) of zebrafish larvae (age of the fish) control (FIG. 6E), 6-OHDA (FIG. 6F), and tapentadol treated-larvae (FIG. 6G).

[7] = system: 6-OHDA treated zebrafish larvae; assay: Freezing (duration of freezing periods, light/dark stimulus) in 6-OHDA zebrafish larvae; assay type: in vivo; conditions: for Freezing recovery: optimal concentrations, methylphenidate 25 μM; for Duration of freezing periods, recovery vs 6-OHDA treated larvae: tapentadol 48.5, stavudine 50, nabumetone 0.91 μM, L-Dopa treatment
Experimental: In the zebrafish model, the locomotor impairment was measured and related with bradykinesia in patients. Tests included evaluating ‘freezing_ in response to a light/dark stimulus. 6-OHDA induced larvae had fewer freezing episodes but spent longer periods in the frozen state. In previous studies, the duration of freezing episodes has been analyzed in PD patients. […] Nonetheless, it is an inhibitor of the neuronal dopamine transporter and since 6-OHDA needs DAT to enter the neuron and induce the disease, methylphenidate may be a false positive.
As FIGS. 9B-9C show, freezing recovery was tested using 7 candidate molecules at optimal concentrations, in an exemplary experiment with n=8 fish, and methylphenidate and amantadine at 25 ? M.

healthy wild type mice = assay: Toxicity assay, welfare and necropsy (Example 6); conditions: tramadol 10 mg/kg in combination with L-Dopa; L-Dopa 18 mg/kg; 24 h
Experimental: Their behavior was evaluated with open field tests for 1 h after i.p. injection. After 24 h, animals were sacrificed and necropsy was performed
9 week old NMRI female mice were used for this assay. Animals were tested for their welfare after two intraperitoneal injections of the test agents using the open field test. Necropsy was done after cervical dislocation. […] Benserazide at 12 mg/kg was administered 30 minutes prior to administration of these compounds, in all groups. Saline was given to the control group.
After benserazide administration, animals were monitored in the open field for 30 minutes for habituation. […] 24 hours after administration of the compounds, the animals were sacrificed and necropsy performed.
For administration of the various agents to the animals, two 700 ? L injections were administered 30 minutes apart.

[8] = cited from earlier work; remark: listed apart in the source
[9] = in vivo; cited from earlier work
6-OHDA mouse model [10] = assay: Abnormal involuntary movements, 6-OHDA mice (Example 5); assay type: in vivo; conditions: mouse, in vivo
Experimental: This condition results in a range of involuntary movements that can be evaluated by video tracking analyses. […] Evaluations were performed during two independent trials, 30 and 90 minutes after treatment administration. […] Nonetheless, forelimb and orofacial involuntary movements are extremely hard to detect, and reading errors occur, considering the size of the animals. Total abnormal involuntary movements are the sum of all 4 different involuntary movements evaluated and is the parameter often reported in the literature.
As FIGS. 17A-17F show, abnormal involuntary movements were evaluated using the cylinder test 28 days post injection. […] Values mean ě SEM (n=5-8).

6-OHDA mouse model [11] = assay: Cylinder test, 6-OHDA mice (Example 5); assay type: in vivo; set-up: Cylinder test: number of right turns: dose or concentration left out as unconfirmed
[12] = 0.01 to 11.4 μg/mL; cited from earlier work
[13] = system: CY P1A2, CY P2C9, CY P2C19, CY P2D6, and CY P3A4; conditions: cited from earlier work
dogs = conditions: dog, in vivo, cited from earlier work
[14] = cited from earlier work; remark: listed apart in the source
6-OHDA mouse model [15] = assay: Rotarod test, unilateral striatal 6-OHDA mice (Example 5); assay type: in vivo; conditions: daily i.p., dosages tested (C1 and C2)
[16] = oral 1,000-2,000 mg to steady state

COc1ccc2cc(CCC(C)=O)ccc2c1 [nabumetone]
Share of dose converted into unidentified metabolites ([1]; 1,000 mg oral dose): 50%
Share of dose converted to 6MNA ([1]; 1,000 mg oral dose): Approximately 35%
Absorption from the gastrointestinal tract ([1]; in vivo): well absorbed
Locomotor behavior rescue (total distance moved, number of jumps), confirmation of screen ([2]; 7 candidate molecules, 3 independent experiments): strong candidates
Optimal concentration [2]: 0.9 µM
Number of jumps: concentration validated as recovering the 6-OHDA induced behavior [2]: 0.456 µM
Total distance travelled, difference between treated larvae and disease control [2]: ~200 mm
Effect of co-administration with L-Dopa on locomotor recovery [3]: the same
Embryo lethality ([4]; 18 μM): no dead embryos
Embryo lethality ([4]; 27 μM): all of the embryos were dead
LD50 (rat): (mouse) or 3880 mg/kg
Solubility [5]: 50 mg/ml in
COX-2 inhibition (COX-2): poor COX-2 inhibitor
LD50 (mouse): 4290 mg/kg
Neurorescue [6]: confirmed
Neuroprotective effect / recovery of TH+ neurons [6]: confirmed; also recorded: Recovery was observed
Freezing recovery [7]: do not show an ability to recover freezing phenotype
Duration of freezing periods, recovery vs 6-OHDA treated larvae [7]: not recovered

COC(=O)C(c1ccccc1)C1CCCCN1 (stereo not shown) [Methylphenidate]
Freezing recovery [7]: more consistent freezing recovery

COc1cccc(C2(O)CCCCC2CN(C)C)c1 (stereo not shown) [tramadol]
Necropsy findings (healthy wild type mice): normal abdominal organs, with the exception of one that had a slight hyperemia in the small intestine

COc1ccc2cc(CC(=O)O)ccc2c1 [6MNA, 6-methoxy-2-naphthylacetic acid]
Printed only as 'It is 0.2-0.3%' (after plasma protein binding) ([1]; concentrations typically achieved following 1,000 mg of nabumetone): 0.2-0.3%
Bound to plasma proteins ([1]; in vivo): more than 99%
Elimination half-life [1, 16]: approximately 24 hours
Mean plasma clearance [1, 16]: 20 to 30 mL/min
Inhibition of prostaglandin synthesis (COX-2; most likely through binding to the COX-2 and COX-1 receptors): potent inhibitor

CC[C@@H](c1cccc(O[C@@H]2O[C@H](C(=O)O)[C@@H](O)[C@H](O)[C@H]2O)c1)[C@@H](C)CN(C)C [tapentadol-O-glucuronide]
AUC, fold higher compared with normal renal function ([8]; mild renal impairment (CLCR=50 to <80 mL/min)): 1.5 fold
AUC, fold higher compared with normal renal function ([8]; moderate renal impairment (CLCR=30 to <50 mL/min)): 2.5 fold
Mean accumulation factor ([8]; multiple (every 6 hour) dose study, 75 to 175 mg tapentadol): 1.8
AUC, fold higher compared with normal renal function ([8]; severe renal impairment (CLCR=<30 mL/min)): 5.5 fold
Blood-brain barrier crossing [9]: lower permeability through the blood brain barrier

Cc1cn([C@H]2C=C[C@@H](CO)O2)c(=O)[nH]c1=O [stavudine]
Induction of abnormal involuntary movements (6-OHDA mouse model [10]): None of the treatments, tapentadol or stavudine of the combination, induced involuntary movements
Therapeutic window ([2]; 6-OHDA zebrafish larvae): 50 to 70 µM
Optimal concentration [2]: 50 µM
Number of jumps: concentration validated as recovering the 6-OHDA induced behavior [2]: 50 µM
Total distance travelled, difference between treated larvae and disease control [2]: 400 mm
Cylinder test: number of right turns (6-OHDA mouse model [11]; parameter disregarded): phenotypic recovery in a very similar way to L-Dopa
Cylinder test: number of rearings (6-OHDA mouse model [11]; vs 6-OHDA group, daily i.p.): did not show recovery
Cylinder test: percentage of animals with tremor (6-OHDA mouse model [11]; vs 6-OHDA group, daily i.p.): did not show recovery
Cylinder test: percentage of contralateral paw use (6-OHDA mouse model [11]; vs 6-OHDA group, daily i.p.): did not show recovery
Protein binding [12]: negligible
Effect of co-administration with L-Dopa on locomotor recovery [3]: not affected; also recorded: least effective; also recorded: not influenced
Inhibition of major cytochrome P450 isoforms [13]: not considered to inhibit
LD50 (dogs; iv): 1,680 mg/kg
LD50 (dogs; po): 2,000 mg/kg
LD50 ([4]; 6-OHDA disease-induced zebrafish larvae): >10 mM
LD50 ([4]; 6-OHDA zebrafish larvae): > 10,000 μM
LD50 (rat; in vivo, iv): 1,200 mg/kg
LD50 (rat; in vivo, po): 4,000 mg/kg
LD50 (rat): 4 g/kg (rat)
Clearance ([14]; HIV-infected adult and pediatric patients, 1-hour IV infusion): 594 ± 164 mL/min
Accumulation with repeated administration ([14]; every 6, 8, or 12 hours): no significant accumulation
Renal clearance ([14]; healthy subjects receiving 80 mg PO): 272 mL/min
Renal elimination, share of the overall clearance ([14]; humans, regardless of the route): about 40%
Half-life ([14]; in adults): 48 to 90 min
Time of peak plasma concentrations after dosing ([14]; oral administration): ≤ 1 h
Rotarod: latency to fall and speed, recovery (6-OHDA mouse model [15]): did not have an effect
LD50 (mouse; in vivo, iv): 1,000 mg/kg
LD50 (mouse; in vivo, po): 1,000 mg/kg
Neurorescue [6]: confirmed p < 0.09
Neuroprotective effect / recovery of TH+ neurons [6]: confirmed
Freezing recovery [7]: positive results; also recorded: reverted freezing
Duration of freezing periods, recovery vs 6-OHDA treated larvae [7]: recovered

COC(=O)C1=C(C)NC(C)=C(C(=O)OC(C)C)C1c1cccc2nonc12 (stereo not shown) [Isradipine]
Optimal concentration [2]: 0.045 µM
Effective concentration / peak, small range plot ([2]; phenotype recovery, total distance moved): 0.045 µM and 0.084 µM
Effect of co-administration with L-Dopa on locomotor recovery [3]: lost its effect
Solubility [5]: 25 mg/ml in
Neurorescue [6]: confirmed
